“And” between values parts separate entries of the source, which are not always exact repeats. Equal entries are not always repeated. Ends that are not written are not given here.
What was measured:
human α-thrombin [1] = biological target: T1, human α-thrombin (Homo sapiens, UniProt P00734); assay: Clotting assay: fibrinogen clotting by human thrombin, concentration doubling the clotting time (DCT) = IC50; format: biochemical
T1 construct: Bovine and human α-thrombins were supplied by Haematologic Technologies Inc (VT, USA); cleaved off efficiently by thrombin to generate the free N-terminus of the A-chain of human thrombin; purchased Haematologic Technologies Inc (VT, USA)
Description: The clotting assays were carried out by use of the protocols described previously (DiMaio, J., Gibbs, B., Munn, D., Lefebvre, J., Ni, F., and Konishi, Y. (1990) J. Biol. Chem. 265, 21698-21703; and Witting, J. I., Bourdon, P., Brezniak, D. V., Maraganore, J. M., and Fenton, J. W. (1992) Biochem. J. 283 (Pt 3), 737-743) The assay employs bovine plasma fibrinogen dissolved at 0.1% in 50 mM Tris-Cl, 100 mM NaCl, 0.1% PEG-8000 at pH 7.6 (i.e. the clotting buffer). Each assay mixture contained a certain concentration of the peptide, and the reaction was started by the addition of human thrombin to a final concentration of 0.1 NIH unit/ml. Optical absorbance of the assay mixtures was measured at 420 nm and 37° C. using the Spectramax™ plate reader. The onset clotting time was determined as an intersection of the baseline and the initial slope of the O.D. change as a result of fibrin clot formation. The concentration of a peptide needed to double the clotting time (DCT) was defined as IC50. Peptide concentrations were determined by comparing the O.D.280 values of peptide stock solutions in the clotting buffer (vide supra) with the predicted extinction coefficient for each peptide (Gill, S. C. and von Hippel, P. H. (1989) Anal. Biochem. 182, 319-326).
The peptide concentration for doubling the clotting time (DCT) was defined as the IC50 value.

human α-thrombin [2] = biological target: T1, human α-thrombin; assay: Inhibition of the amidolytic activity of thrombin (Tos-Gly-Pro-Arg-p-nitroanilide hydrolysis); format: biochemical; settings: for Ki: Amidolytic assay, 25° C. (Ki, nM), Tos-Gly-Pro-Arg-pNA, 25° C.
Description: Kinetics of thrombin-catalyzed hydrolysis of the chromogenic substrate Tos-Gly-Pro-Arg-p-nitroanilide were followed by absorbance at 405 nm on a Spectramax plate reader thermostated at either 25° C. or 37° C. according to the method of Maragnore et al (supra). The concentrations of Tos-Gly-Pro-Arg-p-nitroanilide ranged from 2 to 400 μM. Initial rates were calculated under conditions of <15% hydrolysis of the total substrate. The KM and Vmax values were calculated accordingly and kcat values were determined by dividing Vmax by the enzyme (thrombin) concentration. The inhibition assays were performed in the clotting buffer with a certain fixed concentration of α-thrombin (˜0.3 nM) such that linear progress curves were achieved within at least 15 min in the absence of the inhibition. The total volume of the solution was fixed at 200 μl. Reactions were initiated by addition of the chromogenic substrate to the wells containing thrombin and a certain concentration of the peptide inhibitors premixed for less than 2 min. Alternatively, the substrate was first mixed with the peptide inhibitor and the total volume was adjusted to 120 μL using the clotting buffer. Eighty microliters of human α-thrombin in the clotting buffer (˜0.3 nM final concentration) was added to initiate the reaction. The concentration of the peptides ranged from 0.5 nM to 10 μM. Kinetics data from initial rate experiments were used to construct Lineweaver-Burke plot; i.e. the relationship of (substrate concentration)^−1 versus (initial velocity)^−1 which. were analysed by linear regression with MicroCal Origin 4.1 program (MicroCal, MD) or using the GraphPad Prism software. The Ki values of the inhibitors were determined using the equation: Ki=[I]/{(SL0/SL1)−1}, where
[I] is the inhibitor concentration,
SL0 is the slope of the reaction in the absence of inhibitors, and
SL1 is the slope of the reaction in the presence of the inhibitor.
Alternatively, Dixon plots of inverse velocity versus the inhibitor concentrations were generated with the Sigmaplot™ software. Every Dixon plot contained an array of data corresponding to different substrate concentrations and the Ki values were determined from the intersections. Following Peptide Cleavage by HPLC

Compound	IC50 (human α-thrombin [1])	Ki (human α-thrombin [2]) [nM]	IC50 values (in words) (human α-thrombin [1]; clotting assay, FNPRP peptide alone)	amidolytic activity of thrombin in the presence of the peptide (human α-thrombin [2]; up to 400 nM in concentration)
WDPRPQRHNDGDYEPIPEEYLQ [WD22-R-YP^(d)]	4.8 ± 0.8 nM	–	–	–
CC[C@H](C)[C@H](NC(=O)[C@H](CCC(=O)O)NC(=O)[C@H](CCC(=O)O)NC(=O)[C@H](Cc1ccccc1)NC(=O)[C@H](CC(=O)O)NC(=O)CNC(=O)[C@H](CC(=O)O)NC(=O)[C@H](CC(N)=O)NC(=O)[C@H](Cc1c[nH]cn1)NC(=O)[C@H](CO)NC(=O)[C@H](CCC(N)=O)NC(=O)[C@@H]1CCCN1C(=O)[C@H](CCCNC(=N)N)NC(=O)[C@@H]1CCCN1C(=O)[C@H](CC(=O)O)NC(=O)[C@@H](N)Cc1ccccc1)C(=O)N1CCC[C@H]1C(=O)N[C@@H](CCC(=O)O)C(=O)N[C@@H](CCC(=O)O)C(=O)N[C@@H](Cc1ccc(O)cc1)C(=O)N[C@@H](CC(C)C)C(=O)N[C@@H](CCC(N)=O)C(=O)O [FD22^(a)]	50 ± 15 nM	55 ± 10	–	–
CC[C@H](C)[C@H](NC(=O)[C@H](CCC(=O)O)NC(=O)[C@H](CCC(=O)O)NC(=O)[C@H](Cc1ccccc1)NC(=O)[C@H](CC(=O)O)NC(=O)CNC(=O)[C@H](CC(=O)O)NC(=O)[C@H](CC(N)=O)NC(=O)[C@H](Cc1c[nH]cn1)NC(=O)[C@H](CCSC)NC(=O)[C@H](CCC(N)=O)NC(=O)[C@@H]1CCCN1C(=O)[C@H](CCCNC(=N)N)NC(=O)[C@@H]1CCCN1C(=O)[C@H](CCC(N)=O)NC(=O)[C@@H](N)Cc1ccccc1)C(=O)N1CCC[C@H]1C(=O)N[C@@H](CCC(=O)O)C(=O)N[C@@H](CCC(=O)O)C(=O)N[C@@H](Cc1ccc(O)cc1)C(=O)N[C@@H](CC(C)C)C(=O)N[C@@H](CCC(N)=O)C(=O)O [FQ22-M]	≥ 10 nM	–	–	–
FNPRP [FN, FNPRP]	> 100000 nM	> 2000	submillimolar	–
CC[C@H](C)[C@H](NC(=O)[C@H](CCC(=O)O)NC(=O)[C@H](CCC(=O)O)NC(=O)[C@H](Cc1ccccc1)NC(=O)[C@H](CC(=O)O)NC(=O)CNC(=O)[C@H](CC(=O)O)NC(=O)[C@H](CC(N)=O)NC(=O)[C@H](Cc1c[nH]cn1)NC(=O)[C@H](CCCNC(=N)N)NC(=O)[C@H](CCC(N)=O)NC(=O)[C@@H]1CCCN1C(=O)[C@H](CCCNC(=N)N)NC(=O)[C@@H]1CCCN1C(=O)[C@H](CC(=O)O)NC(=O)[C@@H](N)Cc1ccccc1)C(=O)N1CCC[C@H]1C(=O)N[C@@H](CCC(=O)O)C(=O)N[C@@H](CCC(=O)O)C(=O)N[C@@H](Cc1ccc(O)cc1)C(=O)N[C@@H](CC(C)C)C(=O)N[C@@H](CCC(N)=O)C(=O)O [FD22-R]	~32 nM and 32 nM	45 ± 6	–	–
CC[C@H](C)[C@H](NC(=O)[C@H](CCC(N)=O)NC(=O)[C@@H]1CCCN1C(=O)[C@H](CCCNC(=N)N)NC(=O)[C@@H]1CCCN1C(=O)[C@H](CCC(N)=O)NC(=O)[C@@H](NC(=O)[C@H](CO)NC(=O)CN)[C@@H](C)CC)C(=O)N[C@@H](Cc1c[nH]cn1)C(=O)N[C@@H](CC(N)=O)C(=O)N[C@@H](CC(=O)O)C(=O)NCC(=O)N[C@@H](CC(=O)O)C(=O)N[C@@H](Cc1ccccc1)C(=O)N[C@@H](CCC(=O)O)C(=O)N[C@@H](CCC(=O)O)C(=O)N[C@H](C(=O)N1CCC[C@H]1C(=O)N[C@@H](CCC(=O)O)C(=O)N[C@@H](CCC(=O)O)C(=O)N[C@@H](Cc1ccc(O)cc1)C(=O)N[C@@H](CC(C)C)C(=O)N[C@@H](CCC(N)=O)C(=O)O)[C@@H](C)CC [GS-IQ22-I]	10 ± 1 nM	> 400	–	little affected
CC[C@H](C)[C@H](N)C(=O)N[C@@H](CCC(N)=O)C(=O)N1CCC[C@H]1C(=O)N[C@@H](CCCNC(=N)N)C(=O)N1CCC[C@H]1C(=O)N[C@@H](CCC(N)=O)C(=O)N[C@H](C(=O)N[C@@H](Cc1c[nH]cn1)C(=O)N[C@@H](CC(N)=O)C(=O)N[C@@H](CC(=O)O)C(=O)NCC(=O)N[C@@H](CC(=O)O)C(=O)N[C@@H](Cc1ccccc1)C(=O)N[C@@H](CCC(=O)O)C(=O)N[C@@H](CCC(=O)O)C(=O)N[C@H](C(=O)N1CCC[C@H]1C(=O)N[C@@H](CCC(=O)O)C(=O)N[C@@H](CCC(=O)O)C(=O)N[C@@H](Cc1ccc(O)cc1)C(=O)N[C@@H](CC(C)C)C(=O)N[C@@H](CCC(N)=O)C(=O)O)[C@@H](C)CC)[C@@H](C)CC [IQ22-I]	39 ± 3 nM	–	–	–
CC[C@H](C)[C@H](NC(=O)[C@H](CCC(=O)O)NC(=O)[C@H](CCC(=O)O)NC(=O)[C@H](Cc1ccccc1)NC(=O)[C@H](CC(=O)O)NC(=O)CNC(=O)[C@H](CC(=O)O)NC(=O)[C@H](CC(N)=O)NC(=O)[C@H](Cc1c[nH]cn1)NC(=O)[C@H](CO)NC(=O)[C@H](CCC(N)=O)NC(=O)[C@@H]1CCCN1C(=O)[C@H](CCCNC(=N)N)NC(=O)[C@@H]1CCCN1C(=O)[C@H](Cc1c[nH]cn1)NC(=O)[C@@H](N)Cc1ccccc1)C(=O)N1CCC[C@H]1C(=O)N[C@@H](CCC(=O)O)C(=O)N[C@@H](CCC(=O)O)C(=O)N[C@@H](Cc1ccc(O)cc1)C(=O)N[C@@H](CC(C)C)C(=O)N[C@@H](CCC(N)=O)C(=O)O [FH22]	> 150 nM	–	–	–
CC[C@H](C)[C@H](NC(=O)[C@H](CCC(=O)O)NC(=O)[C@H](CCC(=O)O)NC(=O)[C@H](Cc1ccccc1)NC(=O)[C@H](CC(=O)O)NC(=O)CNC(=O)[C@H](CC(=O)O)NC(=O)[C@H](CC(N)=O)NC(=O)[C@H](Cc1c[nH]cn1)NC(=O)[C@H](CC(=O)O)NC(=O)[C@H](CCC(N)=O)NC(=O)[C@@H]1CCCN1C(=O)[C@H](CCCNC(=N)N)NC(=O)[C@@H]1CCCN1C(=O)[C@H](CCC(=O)O)NC(=O)[C@@H](N)Cc1ccccc1)C(=O)N1CCC[C@H]1C(=O)N[C@@H](CCC(=O)O)C(=O)N[C@@H](CCC(=O)O)C(=O)N[C@@H](Cc1ccc(O)cc1)C(=O)N[C@@H](CC(C)C)C(=O)N[C@@H](CCC(N)=O)C(=O)O [FE22-D]	> 125 nM	–	–	–
CC[C@H](C)[C@H](NC(=O)[C@H](CCC(=O)O)NC(=O)[C@H](CCC(=O)O)NC(=O)[C@H](Cc1ccccc1)NC(=O)[C@H](CC(=O)O)NC(=O)CNC(=O)[C@H](CC(=O)O)NC(=O)[C@H](CC(N)=O)NC(=O)[C@H](Cc1c[nH]cn1)NC(=O)[C@H](CC(=O)O)NC(=O)[C@H](CCC(N)=O)NC(=O)[C@@H]1CCCN1C(=O)[C@H](CCCNC(=N)N)NC(=O)[C@@H]1CCCN1C(=O)[C@H](CC(=O)O)NC(=O)[C@@H](N)Cc1ccccc1)C(=O)N1CCC[C@H]1C(=O)N[C@@H](CCC(=O)O)C(=O)N[C@@H](CCC(=O)O)C(=O)N[C@@H](Cc1ccc(O)cc1)C(=O)N[C@@H](CC(C)C)C(=O)N[C@@H](CCC(N)=O)C(=O)O [FD22-D]	53 ± 2 nM	–	–	–
WDPRPQSRNDGDYEPIPEEYLQ [WD22-SR-YP]	32 ± 3 nM	–	–	–
CC[C@H](C)[C@H](NC(=O)[C@H](CCC(=O)O)NC(=O)[C@H](CCC(=O)O)NC(=O)[C@H](Cc1ccccc1)NC(=O)[C@H](CC(=O)O)NC(=O)CNC(=O)[C@H](CC(=O)O)NC(=O)[C@H](CC(N)=O)NC(=O)[C@H](Cc1c[nH]cn1)NC(=O)[C@H](CO)NC(=O)[C@H](CCC(N)=O)NC(=O)[C@@H]1CCCN1C(=O)[C@H](CCCNC(=N)N)NC(=O)[C@@H]1CCCN1C(=O)[C@H](CCC(=O)O)NC(=O)[C@@H](N)Cc1ccccc1)C(=O)N1CCC[C@H]1C(=O)N[C@@H](CCC(=O)O)C(=O)N[C@@H](CCC(=O)O)C(=O)N[C@@H](Cc1ccc(O)cc1)C(=O)N[C@@H](CC(C)C)C(=O)N[C@@H](CCC(N)=O)C(=O)O [FE22]	80 nM	–	–	–
WDPRPQRHNDGDFEPIPEEYLQ [WD22-R-P^(d)]	8.1 ± 1.1 nM	–	–	–
WDPRPQSRNDGDFEPIPEEYLQ [WD22-SR-P]	53 ± 2 nM	–	–	–
